{"source": "paper PMC11511367", "about": "“Antiproliferative Effects of Naja anchietae and Naja senegalensis Venom Peptides on Glioblastoma Cell Lines” (Toxins, 2024)", "format_in_all_cases": "cell-based", "key": {"U251 glioblastoma cells": {"tested_on": "U251 glioblastoma cells", "experiment": "MTT antiproliferative assay on U251 cells", "conditions": "Brain glioblastoma U251, MTT, 72 h, 1 × 10^−7 to 1 × 10^−4 Molar, OD 570 nm; three-parameter log-logistic fit", "source_text": "(§1) The purified peptides, named CTNsen1, CTNsen2, CTNsen3, CTNanc1, CTNanc2, and CTNanc3 from Naja senegalensis and Naja anchietae respectively, were subsequently tested for their antiproliferative effects on several glioblastoma cell lines (U87, U251, and T98G) as well as on primary human umbilical vein endothelial cells (HUVECs). A series of increasing concentrations (1 × 10^−⁷, 0.5 × 10^−6, 1 × 10^−⁶, 0.5 × 10^−5, 1 × 10^−⁵, 0.5 × 10^−4, and 1 × 10^−⁴ Molar) were used. The dose-response curves for each peptide are depicted in Figure 9, Figure 10, Figure 11 and Figure 12.\nFigure 10 Antiproliferative activity of CTNsen1 (a), CTNsen2 (b), CTNsen3 (c), CTNanc1 (d), CTNanc2 (e), and CTNanc3 (f) from Naja senegalensis and Naja anchietae respectively. […] The OD was measured at 570 nm.\n(§2) U87 and T98G were plated at a density of 4000 cells per well and U251 cells at a density of 2500 cells per well in microtiter plates and allowed to adhere overnight at 37 °C in a 5% CO2 humidified environment. The following day, the medium was replaced with fresh medium containing our venom peptides under investigation. After a 72-h incubation period, cells were treated with MTT (Promega, Lyon, France) at a concentration of 0.5 mg/mL. […] Viable cells were then quantified by measuring the absorbance at 570 nm. […] Model calibration was assessed using the drm() function. […]"}, "T98G glioblastoma cells": {"tested_on": "T98G glioblastoma cells", "experiment": "MTT antiproliferative assay on T98G cells", "conditions": "Brain glioblastoma T98G, 72 h, 1 × 10^−7 to 1 × 10^−4 Molar, OD 570 nm, three-parameter log-logistic fit", "source_text": "as §1\nFigure 11 Antiproliferative activity of CTNsen1 (a), CTNsen2 (b), CTNsen3 (c), CTNanc1 (d), CTNanc2 (e), and CTNanc3 (f) from Naja senegalensis and Naja anchietae, respectively. […] The OD was measured at 570 nm.\nas §2"}, "MCF-7 cells": {"tested_on": "MCF-7 cells", "experiment": "MTT antiproliferative assay on MCF-7 cells (venom screening and isolated peptides)", "conditions": "MCF7 cells, 72 h, 4 µg and 20 µg of peptide", "description": "We screened nearly 40 different animal venoms to evaluate their potential anticancer properties. The venoms were solubilized at a concentration of 1.5 mg/mL in water. The antiproliferative activity of these venoms was tested at two concentrations, 3 µg and 15 µg, against MCF-7 cells (Appendix A, Figure A1).\nFigure A1 Antiproliferative activity of different animal venoms. […] The OD was measured at 570 nm after 72 h of treatment. The abbreviations include Na: Naja anchietae; Vg: Viridovipera gumprechti; Vk: Vipera kaznakovi; Tv: Trimeresurus vogeli; Tt: Trimeresurus trigonocephalus; Ach: Atheris chlorechis; Ath ni: Atheris nitschei nitschei; Nox: Naja oxiana; Np: Naja philippinensis; At sq: Atheris squamigera; Nhl: Naja haje legionis; Por Oph: Porthidium ophryomegas; Ph: Parias hageni; Ns: Naja senegalensis.\nFigure A2 Antiproliferative activity of CTNsen1, CTNsen2, CTNsen3, CTNanc1, CTNanc2, and CTNanc3 from Naja senegalensis (b) and Naja anchietae (a), respectively. […] Na and Ns here were used as a positive control at two concentrations (3 µg and 15 µg). The OD was measured at 570 nm."}}, "note": "Bridges are numbered along the chain shown (N, C = ends). Where no end group is shown, it is not given here."}
{"sequence": "LKCHQLVPPFWKTCPEGKNLCYKMYMVSSSTVPVKRGCIDVCPKNSALVKYVCCNTDKCN (disulfide 3-21, 14-38, 42-53, 54-59) [CTNsen1]", "values": [{"measurement": "IC50 (μg/mL), U251", "setting": "U251 glioblastoma cells", "result": "Inactive"}, {"measurement": "IC50 (μg/mL), T98G", "setting": "T98G glioblastoma cells", "result": "Inactive"}, {"measurement": "Antiproliferative activity of isolated peptides", "setting": "MCF-7 cells", "result": "activity was confirmed"}]}
